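Each compound was tested at five concentrations against cells in 96-well plates for 48 hours. Abbreviation: GI50, concentration required for 50% inhibition of growth. Definition used: TGI = concentration required for complete inhibition of growth.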
Experiments:
Test in all cases: NCI-60 cell line screen, 48 h
[1] = tested on: NCI-H226 lung
[2] = tested on: SK-MEL-5 melanoma
[3] = tested on: UACC-62 melanoma
[4] = tested on: SF-295 CNS
[5] = tested on: KM12 colon
[6] = tested on: HCT-15 colon
[7] = tested on: SNB-19 CNS
[8] = tested on: NCI-H522 lung
[9] = tested on: MDA-MB-231 breast
[10] = tested on: DU-145 prostate

Compound	TGI [1]	TGI [2]	TGI [3]	TGI [4]	TGI [5]	TGI [6]	TGI [7]	GI50 [1]	GI50 [8]	GI50 [2]	GI50 [3]	GI50 [9]	TGI [9]	GI50 [10]	TGI [10]	GI50 [4]	GI50 [6]	GI50 [7]	TGI [8]	GI50 [5]
COc1ccccc1NC(=O)C1=C(C)NC(C)=C(C(=O)Nc2ccccc2OC)C1c1cccc2c1OCO2	> 100 µM	> 100 µM	> 100 µM	> 100 µM	> 100 µM	> 100 µM	> 100 µM													
COc1cc2c(c(OC)c1OC)-c1ccc(SC)c(=O)cc1C(CC(=O)Oc1cccc(C#N)c1)C2 (configuration not stated)	1.02 µM	40.8 µM	5.32 µM	> 100 µM	4.83 µM	6.47 µM	> 100 µM													
N/C(=N\c1nc2ccccc2s1)NC(=O)Nc1cccc2ccccc12	> 68.9 µM	> 100 µM	> 95 µM	1.83 µM		> 100 µM	> 81.2 µM	0.6 µM	77.5 nM	505 nM	354 nM	636 nM	3.32 µM	356 nM	4.2 µM	173 nM	0.126 µM	0.574 µM		
CCOC(=O)[C@H]1Nc2ccc(Cl)cc2[C@H]2c3ccccc3O[C@H]21	> 100 µM	> 100 µM	> 100 µM	> 100 µM	> 100 µM	> 100 µM	> 100 µM												> 100 µM	
CN(C)CCNC(=O)c1nc([N+](=O)[O-])cn1C		> 100 µM	> 100 µM	> 100 µM	> 100 µM	> 100 µM	> 100 µM						> 100 µM		> 100 µM				> 100 µM	
COC(=O)C1=Cc2c(cc(OC)c(OC)c2OC)[C@H](c2ccc(OC)c(OC)c2OC)C1C(=O)OC (some centres not stated)	> 100 µM	> 100 µM	> 100 µM	> 100 µM	> 100 µM	> 100 µM	> 100 µM												> 100 µM	
Cc1cc2c(cc1Br)C1(C)CCC(C)C1(C)O2 (configuration not stated)	50 µM	80.1 µM	> 100 µM	54.6 µM	> 100 µM	> 100 µM	> 100 µM													
Clc1cc(Cl)cc(Nc2nc3ccccc3nc2-c2cccs2)c1	> 100 µM			45.8 µM		> 100 µM														
CN(C)S(=O)(=O)c1ccc(Nc2ccc(O)c3c2C(=O)c2c([N+](=O)[O-])ccc(O)c2C3=O)cc1		> 100 µM	> 100 µM	> 100 µM	> 100 µM	> 100 µM	> 100 µM						> 100 µM		> 100 µM				> 100 µM	
COc1cc2c3c(n(C)c(=O)c2cc1OC)-c1cc2c(cc1/C3=C/[C@H](N)CCCCN)OCO2		7.64 µM	6.33 µM	3.31 µM	> 58.5 µM	> 86.4 µM	20.1 µM		665 nM	1490 nM	1280 nM	941 nM	6.22 µM	1070 nM	50 µM	401 nM	6.8 µM	0.829 µM	5.85 µM	2070 nM
C[Si]12OCCCN(CCO1)CCO2		> 100 µM	> 100 µM	> 100 µM	> 100 µM		> 100 µM												> 100 µM	
O=C(NC1(C(=O)O)CC1c1ccccc1)c1ccccc1 (configuration not stated)	> 100 µM		> 100 µM	> 100 µM	> 100 µM	> 100 µM	> 100 µM						> 100 µM		> 100 µM				> 100 µM	
O=C(O)CCCNS(=O)(=O)c1ccc2ccccc2c1	> 100 µM	> 100 µM	> 100 µM	> 100 µM	> 100 µM	> 100 µM	> 100 µM												> 100 µM	
CC1=CC2CC(C)C1(C)CCc1ccoc12 (configuration not stated)		> 100 µM	> 100 µM	> 100 µM	> 100 µM	> 100 µM	> 100 µM													
CN1C(=O)C(c2c[nH]c3ccccc23)=C(c2c(-c3c[nH]c4ccccc34)[nH]c3ccccc23)C1=O			5.54 µM	4.27 µM	7.61 µM	12.3 µM	18.8 µM		12300 nM		2910 nM	4090 nM	26.9 µM	3000 nM	12.2 µM	1930 nM	3.24 µM	3.95 µM	> 100 µM	2130 nM
NC1=C(Cl)C(=O)c2ccccc2C1=O	18.3 µM	2.09 µM	2.76 µM	18.1 µM	25.7 µM	12.2 µM	24.2 µM								3.84 µM				18.5 µM	
CC(=O)O[C@H]1CC[C@@]2(C)C(=CC[C@@H]3C2CC[C@]2(C)Nc4[nH]ncc4CC32)C1 (some centres not stated)	> 100 µM	42.5 µM	57.1 µM	> 100 µM	31.1 µM	32.8 µM														
O=[N+]([O-])c1cccc(-c2cc(-c3cc(Br)ccc3O)[nH]n2)c1	27.2 µM	3.35 µM	11.7 µM		6 µM	12.9 µM	12.3 µM	3.66 µM	1490 nM	1610 nM	2630 nM	2490 nM	9.87 µM	3440 nM	12.3 µM		2.53 µM	3.26 µM	3.66 µM	2130 nM
COc1ccc(-c2csc3c2-n2cccc2C3=O)cc1O	> 46.6 µM	0.237 µM	49.2 µM	> 100 µM	> 100 µM	> 100 µM	> 100 µM	12.1 µM	< 10 nM	32.6 nM	387 nM	92.5 nM	> 100 µM			500 nM	< 0.0132 µM	3.44 µM	0.0434 µM	65.3 nM
O=C(O)c1ccc(C2C3C=CC(C3)C2[N+](=O)[O-])cc1 (configuration not stated)	> 100 µM	> 100 µM	> 100 µM	> 100 µM	> 100 µM	> 100 µM	> 100 µM												> 100 µM	
CC1CC2(CCC1OCc1ccccc1)OCCO2 (configuration not stated)		> 100 µM	> 100 µM	> 100 µM	> 100 µM	> 100 µM	> 100 µM												> 100 µM	
C=C1C(=O)O[C@H]2C[C@@H]1CCC1(C)OC1CC/C(C)=C/CC[C@H]2C (some centres not stated)	39.4 µM	31.5 µM	31.3 µM	26.3 µM	43.1 µM	31.1 µM	32.9 µM	18.7 µM	37900 nM	17300 nM	17500 nM	17700 nM	32.2 µM			12300 nM	17.3 µM	16 µM	> 100 µM	22200 nM
